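Assay format: 96-well plates, 48-hour exposure. Abbreviation: GI50, concentration required for 50% inhibition of growth. TGI marks complete inhibition of growth.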
Legend:
Experiment in all cases: growth of human tumour cells (NCI), 48 h
[1] = test system: HCT-15 colon
[2] = test system: SK-MEL-2 melanoma
[3] = test system: OVCAR-4 ovarian
[4] = test system: OVCAR-8 ovarian
[5] = test system: SF-295 CNS
[6] = test system: EKVX NSCLC
[7] = test system: MOLT-4 leukemia
[8] = test system: NCI-H23 lung
[9] = test system: RPMI-8226 leukemia
[10] = test system: SN12C renal

Structure (SMILES) | GI50 [1] [µM] | TGI [1] [µM] | GI50 [2] [µM] | TGI [2] [µM] | GI50 [3] [µM] | TGI [3] [µM] | GI50 [4] [µM] | TGI [4] [µM] | GI50 [5] [µM] | TGI [5] [µM] | GI50 [6] [µM] | TGI [6] [µM] | GI50 [7] [µM] | TGI [7] [µM] | GI50 [8] [µM] | TGI [8] [µM] | TGI [9] [µM] | TGI [10] [µM] | GI50 [9] [µM] | GI50 [10] [µM]
CCCCCCOC(=O)CC1=C(C)/C(=C/c2[nH]c(-c3ccc[nH]3)cc2OC)N=C1C | 0.0315 | 1.14 | 0.0532 | 0.23 | 0.0785 | 1.71 | 0.238 | 1.21 | 0.12 | 0.466 | 0.0576 | 1.64 | 0.0436 | 1.46 | 0.101 | 1.75 |  |  |  | 
N#CC(Sc1ccccc1)C(N)=O (stereo unspecified) |  | > 100 |  |  |  | > 100 |  | > 100 |  | > 100 |  | > 100 |  | > 100 |  | > 100 | > 100 | > 100 |  | 
COc1ccc(C2c3ccc4ccccc4c3Oc3ncn(CCCn4ccnc4)c(=N)c32)cc1OC (stereo unspecified) | 3.37 | 12.8 |  |  | 9.65 | 26.4 | 3.16 | 11.6 | 4.35 | 19.9 |  |  | 2.59 | 6.25 | 6.49 | 22.4 | 8.58 | 17.7 | 2.81 | 3.64
O=C(O)c1cnc2c(ccc3[nH]cccc32)c1=O |  | > 100 |  | > 100 |  | > 100 |  | > 100 |  |  |  | > 100 |  | > 100 |  | > 100 |  | > 100 |  | 
O=C(Nc1ccc(Cl)c(C(F)(F)F)c1)Nc1ccc(-c2cccnc2)cc1N1CCC(CO)CC1 | 2.32 | 8.01 | 1.86 | 4.34 | 2.97 | > 100 | 3.75 | 35.4 | 2.11 | 5.15 | 1.72 | > 100 | 2.57 | > 100 | 2.78 | 9.55 |  | 19 |  | 3.46
COc1ccc(O)c(/C=N\Nc2ccccc2)c1 |  | > 100 |  | > 100 |  | > 100 |  | > 100 |  |  |  | > 100 |  | 18.2 |  | 67.7 | 5.94 | > 100 |  | 
CC(=O)N1c2ccccc2N(C(C)=O)C1c1ccc(C2N(C(C)=O)c3ccccc3N2C(C)=O)[nH]1 |  | > 100 |  |  |  | > 100 |  | > 100 |  | > 100 |  | > 100 |  | > 100 |  | > 100 | > 100 | > 100 |  | 
C[C@@H]1CC[C@@]2(C)OC(c3ccccc3)[C@H](CO)N2C1=O (stereo partly specified) |  | > 100 |  | > 100 |  | > 100 |  | > 100 |  | > 100 |  | > 100 |  |  |  | > 100 | > 100 | > 100 |  | 
COC(=O)[C@H](Cc1cn(C)cn1)NC(=O)[C@H](CC(C)C)NC(=O)Nc1cc(C(F)(F)F)cc(C(F)(F)F)c1 | > 10 | > 10 | > 10 | > 10 | > 10 | > 10 | 9.54 | > 10 | > 10 | > 10 |  |  | 3.4 | > 10 | > 10 | > 10 | > 10 | > 10 | 4.98 | 6.69
CCCN(CCC)c1ccc(/C=N/NC(=O)c2cccnc2)c(C)c1 | 11.9 | 47.8 |  |  | 15.3 | 78.5 | 18 | 44.1 | 10.7 | 25.5 | 13.5 | 37.2 | 16.5 | 42.6 | 14.4 | 32.1 | 68.7 | 41.2 | 19.4 | 17.5
COc1ccc2cc3c4cc(OC)c(OC)cc4ccn3c2c1 |  |  |  | > 100 |  | > 100 |  | > 100 |  | > 100 |  | > 100 |  | > 100 |  | > 100 |  | > 100 |  | 
COc1ccc(C(=O)/C=C/c2cc(-c3ccc(OC)c(OC)c3)n[nH]2)cc1OC | 1.09 | 5.39 | 2.46 | 5.17 | 1.92 | 8.15 | 2.63 | 22.4 | 1.6 | 5.05 |  |  | 2.2 | > 100 | 2.25 | 5.7 | 2.26 | 4.82 | 0.357 | 1.92
O/N=C1/CCCC/C1=C\c1ccc(Cl)c(Cl)c1 |  | > 100 |  |  |  | 59.3 |  | > 100 |  | > 100 |  | > 100 |  | 36.4 |  | > 100 |  | 42.3 |  | 
CCCCCN(CCCCC)CCC[C@@H](C)[C@H]1CC[C@H]2[C@@H]3[C@H](OCCCN)C[C@@H]4C[C@H](OCCCN)CC[C@]4(C)[C@H]3C[C@H](OCCCN)[C@]12C | 15.4 | > 100 | 15.1 | 31.3 | 14.3 | 32.6 | 7.39 | 22.9 | 3.03 | 21.8 |  |  | 3.85 | 14.4 | 4.36 | 20.6 | 4.71 | 18.8 | 1.84 | 4.33
CC(C)(C)c1cc(C[P+](c2ccccc2)(c2ccccc2)c2ccccc2)cc(C(C)(C)C)c1O | 2.39 | 11.9 | 0.257 | 0.585 | 0.337 | 9.16 | 0.386 | 5.56 | 0.547 | 6.79 |  |  | 1.41 | 5.19 | 0.365 | 8.21 | 0.627 | 2.31 | 0.178 | 0.404
CCCCCSc1ccc2nc(NC(=O)OCC)sc2c1 | 0.384 | > 100 | 0.431 | 25.3 |  |  | 4.85 | > 100 | 0.394 | 10.6 | 0.557 | > 100 | 0.85 | > 100 | 1.15 | > 100 | > 100 | > 100 | 1.04 | 0.959
Cc1ccc(-c2cc(C(=O)Nc3ccc(S(=O)(=O)N4CCCCC4)cc3)[nH]n2)c(O)c1 | > 100 | > 100 | > 100 | > 100 | > 100 | > 100 | > 100 | > 100 | > 100 | > 100 |  |  | 55.1 | > 100 | > 100 | > 100 | > 100 | > 100 | > 100 | > 100
